Source: patent US9546138B2, “Pyridone derivatives and uses thereof in the treatment of tuberculosis” (priority 2012, dated 2017)
In brackets after ≈: the same amount, converted by molar mass. Where two headings read alike, the source gives them in different places.

Tests used:
Experiment in all cases: microbe, parasite or virus in culture
Assay type in all cases: cell-based
[1] = system: Mycobacterium tuberculosis H37Rv (ATCC #27294)
M. smeg WT (WT inhA) = conditions: Mycolicibacterium smegmatis, strain M. smeg WT, read-out: Compound MIC50
BCG WT (WT inhA) = conditions: Mycobacterium tuberculosis variant bovis BCG, read-out: Compound MIC50

`CC(C)Cc1cc(O)c(-c2ccccc2)c(=O)n1C` [PD19, 4-hydroxy-6-isobutyl-1-methyl-3-phenylpyridin-2(1H)-one] was tested. Which MIC50 ([1]; 120 h, read-out: MTB MIC50) did it give?
Its MIC50 is 8.14 µM (≈ 2.09 µg/mL).

How did the MIC50 ([1]; 120 h, read-out: MTB MIC50) turn out when `CC(C)(C)Cc1cc(O)c(-c2ccccc2)c(=O)[nH]1` [PD8, 4-hydroxy-6-neopentyl-3-phenylpyridin-2(1H)-one] was run?
Its MIC50 is 10 µM (≈ 2.58 µg/mL).

For `CC1(C)CCC(Cc2cc(OP(=O)(O)O)c(-c3ccccc3)c(=O)[nH]2)CC1` [PD22, 6-((4,4-dimethylcyclohexyl)methyl)-2-oxo-3-phenyl-1,2-dihydropyridin-4-yl dihydrogen phosphate], which MIC50 ([1]; 120 h, read-out: MTB MIC50) is on record?
Its MIC50 is 1.72 µM.

With `CC(C)Cc1cc(O)c(-c2ccc(F)cc2F)c(=O)[nH]1` [PD17, 3-(2,4-difluorophenyl)-4-hydroxy-6-isobutylpyridin-2(1H)-one] as the compound, how does the MIC50 ([1]; 120 h, read-out: MTB MIC50) read?
The MIC50 was 9.18 µM (≈ 2.56 µg/mL).

Which MIC50 ([1]; 120 h, read-out: MTB MIC50) does the source give for `CC1(C)CCC(Cc2cc(O)c(-c3ccccc3)c(=O)[nH]2)CC1` [PD10, 6-((4,4-dimethylcyclohexyl)methyl)-4-hydroxy-3-phenylpyridin-2(1H)-one] here?
The MIC50 was 0.02 µM (≈ 0.00623 µg/mL).

And the MIC50 ([1]; read-out: Compound MIC50)?
Its MIC50 is 0.05 µM (≈ 0.0156 µg/mL).

And the MIC50 (M. smeg WT (WT inhA))?
Its MIC50 is 0.4 µM (≈ 0.125 µg/mL).

And the MIC50 (BCG WT (WT inhA); strain BCG WT, WT inhA)?
Its MIC50 is 0.02 µM (≈ 0.00623 µg/mL).

For `O=c1[nH]c(Cc2ccccc2)cc(O)c1-c1ccccc1` [PD1, 6-benzyl-4-hydroxy-3-phenylpyridin-2(1H)-one], which MIC50 ([1]; 120 h, read-out: MTB MIC50) is on record?
Its MIC50 is 1.4 µM (≈ 0.388 µg/mL).

`O=c1[nH]c(CC2CCOCC2)cc(O)c1-c1ccccc1` [PD6, 4-hydroxy-3-phenyl-6-((tetrahydro-2H-pyran-4-yl)methyl)pyridin-2(1H)-one] was tested. Which MIC50 ([1]; 120 h, read-out: MTB MIC50) did it give?
The MIC50 was 10.1 µM (≈ 2.88 µg/mL).

Which MIC50 ([1]; 120 h, read-out: MTB MIC50) does the source give for `CC(C)Cc1cc(O)c(-c2cccc(Cl)c2)c(=O)[nH]1` [PD14, 3-(3-chlorophenyl)-4-hydroxy-6-isobutylpyridin-2(1H)-one] here?
The MIC50 was 2.67 µM (≈ 0.742 µg/mL).

With `O=c1[nH]c(Cc2ccncc2)cc(O)c1-c1ccccc1` [PD11, 4-hydroxy-3-phenyl-6-(pyridin-4-ylmethyl)pyridin-2(1H)-one] as the compound, how does the MIC50 ([1]; 120 h, read-out: MTB MIC50) read?
The MIC50 was 6.08 µM (≈ 1.69 µg/mL).

Which results are given for `CCc1cc(C(N)=S)ccn1` [Ethionamide, reference compound]?
MIC50 ([1]; read-out: Compound MIC50): 1.66 µM (≈ 0.276 µg/mL); MIC50 (M. smeg WT (WT inhA)): > 20 µM; MIC50 (BCG WT (WT inhA); BCG): 17 µM (≈ 2.83 µg/mL)

With `CC(C)CCc1cc(O)c(-c2ccccc2)c(=O)[nH]1` [PD7, 4-hydroxy-6-isopentyl-3-phenylpyridin-2(1H)-one] as the compound, how does the MIC50 ([1]; 120 h, read-out: MTB MIC50) read?
The MIC50 was 1.51 µM (≈ 0.389 µg/mL).

Which results are given for `CC(C)Cc1cc(O)c(-c2ccccc2)c(=O)[nH]1` [PD12, 4-hydroxy-6-isobutyl-3-phenylpyridin-2(1H)-one]?
MIC50 ([1]; 120 h, read-out: MTB MIC50): 1.9 µM (≈ 0.462 µg/mL); MIC50 ([1]; read-out: Compound MIC50): 1.54 µM (≈ 0.375 µg/mL); MIC50 (M. smeg WT (WT inhA)): 0.67 µM (≈ 0.163 µg/mL); MIC50 (BCG WT (WT inhA); strain BCG WT, WT inhA): 0.37 µM (≈ 0.09 µg/mL)

`O=c1[nH]c(CC2CCC(F)(F)CC2)cc(O)c1-c1ccccc1` [PD9, 6-((4,4-difluorocyclohexyl)methyl)-4-hydroxy-3-phenylpyridin-2(1H)-one] was tested. Which MIC50 ([1]; 120 h, read-out: MTB MIC50) did it give?
Its MIC50 is 1.32 µM (≈ 0.422 µg/mL).

With `O=c1[nH]c(CC2CCCC2)cc(O)c1-c1ccccc1` [PD4, 6-(cyclopentylmethyl)-4-hydroxy-3-phenylpyridin-2(1H)-one] as the compound, how does the MIC50 ([1]; 120 h, read-out: MTB MIC50) read?
Its MIC50 is 0.92 µM (≈ 0.248 µg/mL).

`O=c1[nH]c(CC2CC2)cc(O)c1-c1ccccc1` [PD3, 6-(cyclopropylmethyl)-4-hydroxy-3-phenylpyridin-2(1H)-one] was tested. Which MIC50 ([1]; 120 h, read-out: MTB MIC50) did it give?
Its MIC50 is 4.53 µM (≈ 1.09 µg/mL).

How did the MIC50 ([1]; 120 h, read-out: MTB MIC50) turn out when `CC(C)Cc1cc(O)c(-c2ccc(F)cc2)c(=O)[nH]1` [PD15, 3-(4-fluorophenyl)-4-hydroxy-6-isobutylpyridin-2(1H)-one] was run?
Its MIC50 is 6.75 µM (≈ 1.76 µg/mL).

With `CC(C)Cc1[nH]c(=O)c(-c2ccccc2)c(O)c1C(N)=O` [PD13, 4-hydroxy-2-isobutyl-6-oxo-5-phenyl-1,6-dihydropyridine-3-carboxamide] as the compound, how does the MIC50 ([1]; 120 h, read-out: MTB MIC50) read?
Its MIC50 is 18.7 µM (≈ 5.35 µg/mL).

How did the MIC50 ([1]; 120 h, read-out: MTB MIC50) turn out when `O=c1[nH]c(CC2CCC2)cc(O)c1-c1ccccc1` [PD5, 6-(cyclobutylmethyl)-4-hydroxy-3-phenylpyridin-2(1H)-one] was run?
Its MIC50 is 1.19 µM (≈ 0.304 µg/mL).

For `CC(C)Cc1cc(O)c(-c2cccc(F)c2)c(=O)[nH]1` [PD18, 3-(3-fluorophenyl)-4-hydroxy-6-isobutylpyridin-2(1H)-one], which MIC50 ([1]; 120 h, read-out: MTB MIC50) is on record?
The MIC50 was 2.69 µM (≈ 0.703 µg/mL).

Which results are given for `NNC(=O)c1ccncc1` [Isoniazid, isoniazid, reference compound]?
MIC50 ([1]; read-out: Compound MIC50): 0.25 µM (≈ 0.0343 µg/mL); MIC50 (M. smeg WT (WT inhA)): > 20 µM; MIC50 (BCG WT (WT inhA); strain BCG WT, WT inhA): 0.3 µM (≈ 0.0411 µg/mL)

Which results are given for `O=c1[nH]c(CC2CCCCC2)cc(O)c1-c1ccccc1` [PD2, 6-(cyclohexylmethyl)-4-hydroxy-3-phenylpyridin-2(1H)-one]?
MIC50 ([1]; 120 h, read-out: MTB MIC50): 0.22 µM (≈ 0.0623 µg/mL); MIC50 ([1]; read-out: Compound MIC50): 0.16 µM (≈ 0.0453 µg/mL)

`CC1(C)CCC(Cc2cc(OCOP(=O)(O)O)c(-c3ccccc3)c(=O)[nH]2)CC1` [PD21, ((6-((4,4-dimethylcyclohexyl)methyl)-2-oxo-3-phenyl-1,2-dihydropyridin-4-yl)oxy)methyl dihydrogen phosphate] was tested. Which MIC50 ([1]; 120 h, read-out: MTB MIC50) did it give?
Its MIC50 is 3.99 µM.
